Experimental data taken from US9927437B2, “Treating neurodegenerative disease” (THE BRIGHAM AND WOMEN'S HOSPITAL, INC., priority 2013, dated 2018).

Assays:
NF-κB (P65) = experiment: NF-κB translocation to the nucleus in astrocytes (western blot); assay type: cell-based, mouse; details: LPS/IFNγ; for translocation of NF-κB to the nucleus: cultured astrocytes
Method: FIGS. 14a-g. B4GALT6 directly controls astrocyte activation. (a) Cultured astrocytes were pre-treated for 1 h with PDMP (25 μM), LacCer (10 μM), both (LacCer+PDMP), or vehicle control (vehicle), followed by activation with LPS/IFNγ for 6 h, or left un-treated (control, Con). mRNA expression was analyzed 6 h following activation. qPCR analysis of the expression of cc/5, csf2, nos2, il6, H2-Aa, and tlr2 presented relative to gapdh. Statistical analysis by one-way ANOVA, followed by Tukey post-hoc analysis. (b, c) Cultured astrocytes were pre-treated for 1 h with LacCer (b) or PDMP (c), at indicated concentrations, followed by activation with LPS/IFNγ, or left un-treated (control, Con). Cell viability was determined 6 h after activation. […] Working concentrations (as in a) are marked in red. (d) The expression of B4galt6 (shB4galt6) or non-targeting shRNA (ShControl) in primary astrocytes was knocked-down using verified shRNA. Astrocytes were then pre-treated for 1 h with PDMP, or vehicle control (vehicle), followed by activation with LPS/IFNγ for 6 h, or left un-treated (control, Con). mRNA expression for H2-Aa, Ccl5 and Cxcl10 was determined; expression is presented as fold induction relative to housekeeping gene (Gapdh). Statistical analysis by one-way ANOVA, followed by Tukey post-hoc analysis (n≥3). […] (f) NF-κB (P65), GAPDH, and Lamin B expression, in cytoplasmic and nuclear fractions analyzed by western blot. The degree of NF-κB translocation to the nucleus was assessed by the ratio between the expression of P65 in nuclear and cytoplasmic fractions following densitometric quantification on four independent experiments (Right panel). […] (g) Expression of CCL-2 or iNOS in IRF-1^+ GFAP^+ astrocytes determined by IF during chronic EAE. […]
Astrocytes were treated as indicated, and total extracts (30 μg of protein), or the nuclear and cytoplasmic subcellular fractionations of cells, were separated by NuPAGE 10% Bis-Tris Gel (Invitrogen), and electroblotted onto supported nitrocellulose membrane. […] Data quantification was done using Image Studio software (Version 3.1.4) (LI-COR, Inc.)

Ly6C^high monocytes = experiment: Viability assay, monocytes; assay type: cell-based, mouse; details: 1 h pre-treatment, 3 h
T cells = experiment: T-cell response in EAE mice (recall proliferation, cytokines, polarization); assay type: in vivo, mouse
Method: FIGS. 9a-d. Depletion of reactive astrocytes reduces the recruitment of peripheral leukocytes to the CNS. (a-d). EAE was induced in WT or GFAP^TK F1 hybrid mice and Ganciclovir (GCV) or vehicle control (PBS) was administered as in FIG. 1b. Data are representative of three independent experiments with n≥7 mice/group (means and s.e.m.). (a) Effect of GCV administration on reactive astrocytes detected by GFAP staining (b) Recruitment of monocytes (red gate) and lymphocytes (green gate) to the CNS assessed by FACS. Data are representative of three independent experiments. Statistical analysis by Student's t-test. (c, d) Effect of the depletion of reactive astrocytes during the chronic phase of EAE on the recall proliferative response to MOG(35-55) or anti-CD3 (c) and the expression of IFN-γ, IL-17A, Foxp3 and IL-10 in splenic CD4+ T cells (d). *P<0.05, and (n.s) not significant.
FIGS. 12a-i. […] (a) Naïve C57BL/6 (Left panel) and NOD (right panel) mice were treated with LacCer (10 μg per mouse) or vehicle as indicated by red arrows, and EAE clinical scores was recorded. At experimental end point (day 25), astrocytes were isolated and their transcriptional profile was determined by nCounter Nanostring analysis. (b-e) EAE was induced in C57BL/6 (b, c) or NOD mice (d, e) and LacCer or vehicle were administrated as in FIGS. 1g and 1h, respectively. Splenic T-cell recall response to MOG(35-55) (20 μg/ml); proliferation (b, d) and secretion of IL-17A, IFN-γ and IL-10 cytokines (c, e). Data are representative of two independent experiments with ≥8 mice/group (mean and s.e.m.). (f-i) EAE NOD mice were treated with PDMP or vehicle during the chronic phase as in FIG. 1K. Data are representative of three independent experiments with n≥8 mice/group (mean and s.e.m.). (f) qPCR analysis of the expression of tbx21, ifng, rorc, il17A, csf2, il10, foxp3, and tgfb1 mRNA of CD3^+CD4^+ T-cells isolated from the CNS; expression is presented relative to gapdh. (g, h) Recall response to MOG(35-55) (20 μg/ml); proliferation (g) and secretion of IL-17A, IFN-γ and IL-10 cytokines (h). (i) Expression of IFN-γ, IL-17A, Foxp3 and IL-10 by splenic CD3^+CD4^+ T cells (mean and s.e.m.).
Splenocytes and lymph node cells were cultured in X-VIVO medium and were plated for 72 h at a density of 5×10^5 cells per well in the presence of MOG35-55 peptide. During the final 16 h, cells were pulsed with […] [3H]thymidine (PerkinElmer), followed by collection on glass fiber filters and analysis of incorporated [3H]thymidine in a-counter (1450 MicroBeta TriLux; PerkinElmer). Supernatants were collect after 48 h of culture for cytokine measurement by enzyme-linked immunosorbent assay^14. For intracellular cytokine staining, cells were stimulated for 6 h with PMA (phorbol 12-myristate 13-acetate; 50 ng/ml; Sigma), ionomycin (1 μg/ml; Sigma) and monensin (GolgiStop; […]; BD Biosciences). After staining of surface markers, cells were fixed and made permeable according to the manufacturer's instructions BD Cytofix/Cytoperm™ Kit (BD Biosciences), or Foxp3 Fixation/Permeabilization (Ebiosceince).

Compound	translocation of NF-κB to the nucleus (NF-κB (P65))	viability of purified Ly6C^high monocytes (Ly6C^high monocytes)	T-cell response (T cells; NOD EAE, PDMP-treated mice, chronic phase)	NF-κB translocation, LacCer added to PDMP (NF-κB (P65); LacCer + PDMP)	T-cell response (T cells; C57BL/6 and NOD EAE after LacCer administration)
CCCCCCCCCC(=O)N[C@H](CN1CCOCC1)[C@H](O)c1ccccc1 [PDMP, D-threo-1-phenyl-2-decanoylamino-3-morpholino-1-propanol]	decreased translocation of NF-κB to the nucleus	did not affect	No significant changes	–	–
lactosylceramide [LacCer]	triggered NF-M3 activation	did not affect	–	abrogated the inhibition induced by PDMP	not linked to changes in the T-cell response
